# Results as given in PMC7906907, “Targeting STAT3 by a small molecule suppresses pancreatic cancer progression” (Oncogene, 2021).
# “And” between values parts separate entries of the source, which are not always exact repeats. Equal entries are not always repeated.
# Key:
# [1] = tested on: Pancreatic cancer cells (CAPAN-2, PANC-1, MIAPACA-2, BXPC-3, HPAC, and CFPAC-1); experiment: MTS proliferation assay, pancreatic cancer cells; format: cell-based; conditions: 48 h
# Protocol: (§1) Fig. 4 N4 suppresses pancreatic cancer cell proliferation and migration and induces apoptosis. A Pancreatic cancer cells (CAPAN-2, PANC-1, MIAPACA-2, BXPC-3, HPAC, and CFPAC-1) and normal cells (HPNE, HAF) were incubated with the indicated concentration of N4 for 48 h. MTS assays were performed to detect the N4-mediated inhibition of cell proliferation. Data are shown as mean ± SD, *P < 0.05, **P < 0.01, ***P < 0.001, ****P < 0.0001, n.s. not significant by one-way ANOVA followed by multiple comparisons. B, C CAPAN-2, PANC-1, and MIAPACA-2 cells were treated with N4 (B) or C188-9 (C) for 7 days. The cells fixed and stained, and colony numbers were calculated. Experiments were carried out in triplicate with identical results obtained. […] Apoptotic cells were analyzed as described in Materials and Methods. […] In F, after 48 h transfection, transfected cells were seeded in 96-well plates, and cells were enumerated at day 1, day 2, and day 4, In G, different cells transfected with different siRNA were treated with the indicated concentrations of N4, and cell viability measured after a 48 h treatment. Data are expressed as mean ± SD, *P < 0.05, ***P < 0.001, n.s. not significant by one-way ANOVA followed by multiple comparisons. […] Data are expressed as mean ± SD, *P < 0.05, ***P < 0.001, n.s. not significant; Student’s t tests were performed. […]
# [2] = tested on: STAT3 nuclear translocation; experiment: Immunofluorescence of STAT3 nuclear translocation; format: cell-based; conditions: PANC-1 cells, 2 μM for 24 h, then IL-6
# Protocol: Fig. 2 N4 inhibits STAT3 activation in pancreatic cancer cells. A PANC-1, CAPAN-2, and BXPC-3 cells were treated with the indicated concentrations of N4 for 24 h. Then, p-STAT3 (Y705), p-STAT3 (S727), and STAT3 were detected by western blot assays with glyceraldehyde 3-phosphate dehydrogenase (GAPDH) used as the loading control. B Pancreatic cancer cells were starved in a medium lacking fetal bovine serum (FBS; basic medium) for 24 h, and then pretreated with N4 in basic medium for 24 h. Then, stimulated with IL-6 (20 ng/mL) for 30 min and lysed for western blot analysis using the indicated antibodies. C Expression levels of STAT3 downstream genes were detected by western blot following treatment of PANC-1 and CAPAN-2 cells with N4. D PANC-1 cells were seeded and allowed to attach, and then pretreated with 2 μM of N4 in FBS-free medium for 24 h. The cells were stimulated for 30 min using IL-6 (20 ng/mL). […] The samples were photographed and analyzed. […] E After 24 h treatment with 2 μM N4, PANC-1 cells were stimulated with IL-6 (20 ng/mL) for 30 min, and the cytoplasmic and nuclear extractions were analyzed by western blot. p-STAT3 (Y705) was used to detect STAT3, and GAPDH and H3 were used as the cytoplasm and nucleus internal control, respectively.
# Immunofluorescence staining was performed as previously described. […] Images were recorded by confocal microscopy (Leica).
# [3] = target: His-STAT3^127-722 protein (Homo sapiens, UniProt P40763); experiment: Fluorescence polarization (FP) assay, STAT3-phosphopeptide interaction; format: binding; design: We purified amino acids 127–722 of the STAT3 protein for this assay; made in house; conditions: N4 pre-incubated with STAT3 protein 1 h, then 10 nM labeled peptide 1 h; read-out: IC50, block of the STAT3-peptide interaction
# Protocol: A Purified STAT3 protein was incubated with labeled phosphopeptide, 5-carboxyfluorescein-GpYLPQTV-NH2 for 1 h at 37 °C. FP signals were measured, and the data were analyzed using Graph Pad 7.0 software. […] C Different concentrations of N4 were pre-incubated with recombined STAT3 protein for 1 h, then 10 nM of labeled peptide was added for 1 h. The IC50 was calculated using Graph Pad 7.0.
# The labeled phosphopeptide: 5-carboxyfluorescein-GpYLPQTV-NH2 (where pY represents phospho-Tyr) was used as the STAT3 binding probe. To evaluate the effect of compounds in inhibiting STAT3-peptide interaction, serial dilutions of the STAT3 competitors were prepared. The diluted compounds were added to the reaction mixture in 100 μl of FP buffer (50 mM HEPES, pH 7.5, 150 mM NaCl, 0.1% NP-40, and 1 mM dithiothreitol) containing 500 nM his-STAT3^127–722 protein for pre-incubation at 37 °C for 1 h. Then, 10 nM of the labeled peptide was added and incubated for 1 h. After incubation, FP was measured on a Cytation^TM 5 cell imaging multi-mode Reader (BioTek) using excitation and emission wavelengths of 480 nm and 535 nm, respectively. Each reaction was repeated two or three times. Binding or competitive parameters were calculated from a nonlinear regression using GraphPad Prism 7.0.
# [4] = tested on: CAPAN-2, PANC-1, and MIAPACA-2 cells; experiment: Colony formation; format: cell-based; conditions: 7 days
# Protocol: as §1
# His-STAT3^127-722 protein, sequence (P40763 127-722): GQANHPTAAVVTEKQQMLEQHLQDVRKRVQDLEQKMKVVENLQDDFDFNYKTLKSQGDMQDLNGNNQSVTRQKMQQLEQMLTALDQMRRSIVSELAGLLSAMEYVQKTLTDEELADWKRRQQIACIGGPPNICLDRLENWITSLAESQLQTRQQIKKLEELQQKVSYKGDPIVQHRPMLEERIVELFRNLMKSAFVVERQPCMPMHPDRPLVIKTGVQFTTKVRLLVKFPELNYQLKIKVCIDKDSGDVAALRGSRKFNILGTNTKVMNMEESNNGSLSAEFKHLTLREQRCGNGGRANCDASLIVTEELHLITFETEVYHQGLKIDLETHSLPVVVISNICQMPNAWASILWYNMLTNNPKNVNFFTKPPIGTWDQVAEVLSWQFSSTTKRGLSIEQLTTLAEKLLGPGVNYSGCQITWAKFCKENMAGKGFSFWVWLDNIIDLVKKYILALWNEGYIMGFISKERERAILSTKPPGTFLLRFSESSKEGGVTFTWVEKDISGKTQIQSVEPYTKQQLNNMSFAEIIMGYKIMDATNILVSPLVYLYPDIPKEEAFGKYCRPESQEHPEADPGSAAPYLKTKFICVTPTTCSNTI
smiles,measurement,setting,value
COc1cc2c(cc1C(=O)Nc1cccc3cccnc13)CCC1C(C)(C)C(=O)C(C#N)=C[C@]21C (stereo partly shown) [N4],proliferation of pancreatic cancer cells,[1],effectively inhibited
same,STAT3 nuclear translocation,[2],substantially impaired
same,IC50,[3],570 nM and 568 nM
same,"colony formation, compared with C188-9 and BP-1-102",[4],more potently inhibited
